# According to US9125912B1, “Method of treating ulcerative colitis” (KING SAUD UNIVERSITY, priority 2015, dated 2015):
# Tested on: ulcerative colitis induced by acetic acid
# Assay: Ulcerative colitis induced by acetic acid in rats, macroscopic parameters
# Type: in vivo, Male Wistar rats
# Conditions: from ulcer index, oral once daily for 5 days before induction, extracts 400 mg/kg, volatile oil 50 mg/kg, dexamethasone 0.1 mg/kg
# Source text: The extracts (total alcohol extract, total phenolic contents and volatile oil) of the three plants under investigation were freshly suspended in distilled water just before administration by the aid of Tween 80.
# The extracts of Ocimum americanum, Ocimum basilicum and Ocimum basilicum var. thyrsiflora were independently administered to rats five days prior to ulcer induction. In detail, twelve experimental groups, each of 6 Male Wistar rats were used. Rats of groups 1 and 2 received the vehicle (5 mL/kg) and served as normal control and control colitis groups. […] Rats of groups 4-12 received the volatile oil extract, the total alcohol extract and the total phenolic extract of each of the three plants. Doses of 400 mg/kg of the total alcohol extract and the phenolic content were administered. Doses of 50 mg/kg of the volatile oil were administered. All medications were administered orally, once daily for 5 successive days and the last dose was administered 2 hours before colitis induction.
# Animals were fasted overnight, with access to water ad libitum. Under ether anesthesia a solution of 2 mL (4%, v/v) acetic acid in saline was slowly infused into the colon through the polyethylene catheter 2 mm diameter that was inserted into the lumen of the colon via the anus to a distance of 8 cm. […]
# The colon specimens were weighted and wet weight/length ratio was calculated for all the rats. The specimens were examined under a dissecting microscope and the lesion scores were quantified by scoring system (0-5).
# Ulcer area was measured using plane glass square. Each cell on the glass square was 1 mm^2 in area and the number of cells was counted and the ulcer area was determined for each colon.
# Ulcer index (UI) was measured by summing the lesion score and the ulcer area for each colon specimen. The curative ratio was determined according to the formula: Curative ratio=Control UI−Test UI/Control UI×100.
# Data were expressed as mean±S. D. Statistical analysis was done by using SPSS 14. Statistical significance of differences between two means was assessed by unpaired Student's ‘t’ test. […]
compound,measurement,setting,value
C[C@@H]1C[C@H]2[C@@H]3CCC4=CC(=O)C=C[C@]4(C)[C@@]3(F)[C@@H](O)C[C@]2(C)[C@@]1(O)C(=O)CO [Dexamethasone],% Protection from control colitis,,71.54%
same,% Protection from control colitis,listed as dexamesthasone,about 71.54%
same,% Protection from control colitis,listed as dexamethasone,71.54%
